Data from patent US20250228865A1, “COMPOUNDS FOR ENHANCING READ THROUGH OF GENES CONTAINING PREMATURE TERMINATION CODONS AND METHODS FOR MAKING AND USING THE SAME” (Sanofi US Services Inc., priority 2022, published 2025).

Key:
[1] = test system: recombinant human CFTR carrying the premature stop codon (PTC) mutation R1162X; experiment: CFTR-PTC mutant translation readthrough, Nanoluc tagged CFTR luminescence (R1162X cell line); assay type: cell-based; details: for CFTR R1162X ACTIVITY Fold 10 μM G-418: fold over 10 μM G-418, in combination with G418; for EC50: in combination with G418, 16HBE cells, read-out: CFTR R1162X ACTIVITY EC50
Outline: (§1)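 Readthrough is the 48 h compound-induced luminescence increase scaled to that of maximal G418 (125-250 μM). Compounds run from 50 μM final in 2-fold steps, ±10 μM G418, on 16HBE lines carrying Nanoluc-tagged CFTR G542X (extracellular loop 4 tag) or R1162X (C-terminal tag), with 3 μM VX-809 present.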

[2] = test system: recombinant human CFTR carrying the premature stop codon (PTC) mutation G542X; experiment: CFTR-PTC mutant translation readthrough, Nanoluc tagged CFTR luminescence (G542X cell line); assay type: cell-based; details: in combination with G418, G542X cell line; for CFTR G542X ACTIVITY Fold 10 μM G-418: fold over 10 μM G-418; for EC50: 16HBE cells
Outline: as §1

Structure (SMILES) | CFTR R1162X ACTIVITY Fold 10 μM G-418 [1] | EC50 [1] | CFTR G542X ACTIVITY Fold 10 μM G-418 [2] | EC50 [2]
CN(C)CC1CN(c2ncc(OCc3c(Cl)cccc3Cl)cn2)CCO1 (centres unmarked) | B′ (B′ = ≥5X to <10X) | > 10000 nM | A′ (A′ = ≥10X) | > 10000 nM
Cc1cccc(C(F)(F)F)c1COc1cnc(N2CC[C@@H](C(N)=O)C2)nc1 | A′ (A′ = ≥10X) | 1000 to 10000 nM | A′ (A′ = ≥10X) | 1000 to 10000 nM
OCCn1cc(-c2ccc(OCc3c(Cl)cccc3Cl)cc2)nn1 [2-[4-[4-[(2,6-dichlorophenyl)methoxy]phenyl]triazol-1-yl]ethanol] | A′ (A′ = ≥10X) | 1000 to 10000 nM | B′ (B′ = ≥5X to <10X) | 1000 to 10000 nM
CNCC1CN(c2ncc(OCc3c(Cl)cccc3Cl)cn2)CCO1 (centres unmarked) | B′ (B′ = ≥5X to <10X) | 1000 to 10000 nM | B′ (B′ = ≥5X to <10X) | 1000 to 10000 nM
CCc1cccc(C(F)(F)F)c1COc1ccc(N2CC(CO)NC2=O)cc1 (centres unmarked) | A′ (A′ = ≥10X) | 1000 to 10000 nM | A′ (A′ = ≥10X) | < 1000 nM
OCC1CN(c2ncc(OCc3c(Cl)cccc3C(F)(F)F)cn2)CCO1 (centres unmarked) | A′ (A′ = ≥10X) | < 1000 nM | A′ (A′ = ≥10X) | < 1000 nM
CN(C)C(=O)N1CCN(c2ncc(OCc3c(Cl)cccc3Cl)cn2)CC1 | A′ (A′ = ≥10X) | < 1000 nM | B′ (B′ = ≥5X to <10X) | < 1000 nM
C[C@H]1CO[C@@H](CO)CN1c1ncc(OCc2c(Cl)cccc2Cl)cn1 (racemic) | A′ (A′ = ≥10X) | < 1000 nM | A′ (A′ = ≥10X) | < 1000 nM
Cc1cccc(C(F)(F)F)c1COc1ccc(-n2cnc(Cn3cnc(CO)c3)c2)nc1 | A′ (A′ = ≥10X) | 1000 to 10000 nM | A′ (A′ = ≥10X) | 1000 to 10000 nM
CC(O)C1CN(c2ccc(OCc3c(Cl)cccc3Cl)cc2)C(=O)O1 (centres unmarked) [3-[4-[(2,6-dichlorophenyl)methoxy]phenyl]-5-(1-hydroxyethyl)oxazolidin-2-one] | B′ (B′ = ≥5X to <10X) | > 10000 nM | A′ (A′ = ≥10X) | 1000 to 10000 nM
OCc1ncn(-c2ccc(OCc3c(Cl)cccc3C(F)(F)F)cn2)n1 | A′ (A′ = ≥10X) | < 1000 nM | A′ (A′ = ≥10X) | < 1000 nM
Cc1cccc(C(F)(F)F)c1COc1ccc(N2C(=O)NC3(CCCC3)C2=O)cc1 | B′ (B′ = ≥5X to <10X) | 1000 to 10000 nM | A′ (A′ = ≥10X) | < 1000 nM
Cc1cccc(C(F)(F)F)c1COc1cnc(N2CCO[C@@H](CO)C2)nc1 | A′ (A′ = ≥10X) | < 1000 nM | A′ (A′ = ≥10X) | < 1000 nM
OCc1cn(-c2ccc(OCc3c(Cl)cccc3Cl)cn2)nn1 [[1-[5-[(2,6-dichlorophenyl)methoxy]-2-pyridyl]triazol-4-yl]methanol] | A′ (A′ = ≥10X) | < 1000 nM | A′ (A′ = ≥10X) | < 1000 nM
Cc1cccc(C(F)(F)F)c1COc1cnc(N2CCC(CO)(CO)CC2)nc1 | A′ (A′ = ≥10X) | < 1000 nM | A′ (A′ = ≥10X) | < 1000 nM
CC(O)C1CCN(c2ncc(OCc3c(Cl)cccc3Cl)cn2)C1 (centres unmarked) [1-[1-[5-[(2,6-dichlorophenyl)methoxy]pyrimidin-2-yl]pyrrolidin-3-yl]ethanol] | A′ (A′ = ≥10X) | 1000 to 10000 nM | A′ (A′ = ≥10X) | 1000 to 10000 nM

Structure (SMILES) | CFTR R1162X ACTIVITY Fold 10 μM G-418 [1] | EC50 [1] | CFTR G542X ACTIVITY Fold 10 μM G-418 [2] | EC50 [2]
NC(=O)NCC1CN(c2ncc(OCc3c(Cl)cccc3Cl)cn2)CCO1 (centres unmarked) [[4-[5-[(2,6-dichlorophenyl)methoxy]pyrimidin-2-yl]morpholin-2-yl]methylurea] | B′ (B′ = ≥5X to <10X) | 1000 to 10000 nM | A′ (A′ = ≥10X) | 1000 to 10000 nM
Cc1cccc(C(F)(F)F)c1COc1cnc(-n2cnc(CO)n2)nc1 | A′ (A′ = ≥10X) | 1000 to 10000 nM | A′ (A′ = ≥10X) | < 1000 nM
OCC1(F)CCN(c2ncc(OCc3c(Cl)cccc3Cl)cn2)CC1 [[1-[5-[(2,6-dichlorophenyl)methoxy]pyrimidin-2-yl]-4-fluoro-4-piperidyl]methanol] | A′ (A′ = ≥10X) | < 1000 nM | A′ (A′ = ≥10X) | < 1000 nM
CCc1cccc(C(F)(F)F)c1COc1ccc(N2C[C@@H](CO)NC2=O)nc1 | C′ (C′ = <5X) | < 1000 nM | C′ (C′ = <5X) | < 1000 nM
Cc1cccc(C(F)(F)F)c1COc1cnc(N2CCO[C@@H](CN)C2)nc1 | A′ (A′ = ≥10X) | < 1000 nM | A′ (A′ = ≥10X) | < 1000 nM
Cc1cccc(C(F)(F)F)c1COc1ccc(N2C(=O)CN(C)C2=O)cc1 | A′ (A′ = ≥10X) | 1000 to 10000 nM | A′ (A′ = ≥10X) | < 1000 nM
OCc1cc(-c2ncc(OCc3c(Cl)cccc3C(F)(F)F)cn2)[nH]n1 | A′ (A′ = ≥10X) | 1000 to 10000 nM | A′ (A′ = ≥10X) | < 1000 nM
CC(=O)NCC1CN(c2ccc(OCc3c(C)cccc3C(F)(F)F)cc2)C(=O)O1 (centres unmarked) | A′ (A′ = ≥10X) | 1000 to 10000 nM | A′ (A′ = ≥10X) | 1000 to 10000 nM
Cc1cccc(C(F)(F)F)c1COc1ccc(-n2cnc(CO)c2)nc1 | A′ (A′ = ≥10X) | 1000 to 10000 nM | A′ (A′ = ≥10X) | < 1000 nM
Cc1cccc(C(F)(F)F)c1COc1cnc(NC(=O)N(C)C)nc1 | C′ (C′ = <5X) | 1000 to 10000 nM | A′ (A′ = ≥10X) | 1000 to 10000 nM
OC1CCN(c2ncc(OCc3c(Cl)cccc3Cl)cn2)CC1 [1-[5-[(2,6-dichlorophenyl)methoxy]pyrimidin-2-yl]piperidin-4-ol] | A′ (A′ = ≥10X) | < 1000 nM | A′ (A′ = ≥10X) | < 1000 nM
CC1(C)CN(c2ncc(OCc3c(Cl)cccc3Cl)cn2)CC(CO)O1 (centres unmarked) | A′ (A′ = ≥10X) | 1000 to 10000 nM | A′ (A′ = ≥10X) | 1000 to 10000 nM
O[C@H]1CCN(c2ncc(OCc3c(Cl)cccc3Cl)cn2)C1 [(3S)-1-[5-[(2,6-dichlorophenyl)methoxy]pyrimidin-2-yl]pyrrolidin-3-ol] | A′ (A′ = ≥10X) | 1000 to 10000 nM | A′ (A′ = ≥10X) | 1000 to 10000 nM
Cc1cccc(C(F)(F)F)c1COc1ccc(N2CCOC(CO)C2)cc1 (centres unmarked) | A′ (A′ = ≥10X) | 1000 to 10000 nM | A′ (A′ = ≥10X) | < 1000 nM
O=C1CN(c2ncc(OCc3c(Cl)cccc3Cl)cn2)C(=O)N1 [Example 323, 1-{5-[(2,6-dichlorophenyl)methoxy]pyrimidin-2-yl}imidazolidine-2,4-dione] | C′ (C′ = <5X) | 1000 to 10000 nM | C′ (C′ = <5X) | 1000 to 10000 nM
NC(=O)N1CC2(C1)CN(c1ncc(OCc3c(Cl)cccc3C(F)(F)F)cn1)C2 | B′ (B′ = ≥5X to <10X) | 1000 to 10000 nM | A′ (A′ = ≥10X) | 1000 to 10000 nM
